According to a melting point compilation (Tetko et al.; mined from patent text by program, amines drawn as free bases though some values may be those of a salt):

First: CC1=C(C(=O)OC(C)(C)C)C(c2cc(Br)ccc2F)C(C(=O)OC(C)(C)C)=C(C)N1
Second: CN(CCOc1cccc2ccn(C(=O)OC(C)(C)C)c12)C(=O)OC(C)(C)C
The melting point of the first is higher: 173 to 174 °C for the first, 74 to 76 °C for the second.

First: CCOC(=O)c1ccc(C(=O)C2=NS(=O)(=O)c3ccccc3C2=O)cc1
Second: CCOC(=O)c1ccc2c(c1)S(=O)c1ccccc1-2 (stereo not given)
The melting point of the first is lower: 161 °C for the first, 210 to 213 °C for the second.

First: c1cc(-c2ccc(N3CCNCC3)nc2)nc(Nc2ccc3[nH]nnc3c2)n1
Second: O=c1[nH]c2ncc(-c3ccc4[nH]cnc4c3)nc2n1CC1CCCCC1
The melting point of the first is higher: 280 to 283 °C for the first, 217 to 220 °C for the second.

`Cc1cccc(Nc2c(N)cc(C(=O)O)cc2S(N)(=O)=O)c1` and `O=C(O)c1ccc(-c2nc3cc(Cl)c(Cl)cc3[nH]2)cc1` cannot be ordered by melting point: 280 to 282 °C for the first, greater than 250 °C for the second.

Compared with `CCc1ccccc1C(Cc1ccccc1NC(=O)C(C)(C)C)NC` (stereo not given), `CN1c2ccccc2CC1c1ccccc1NC(=O)C(C)(C)C` (stereo not given) is higher in melting point: 80 to 81.5 °C for the first, 133 to 135 °C for the second.

First: N#CC(c1ccccc1)(c1ccccc1)C1CCCN(CCc2ccc(Cl)c(Cl)c2)C1 (stereo not given)
Second: c1ccc(COc2ccc(NC3=NN(c4ccccc4)CC3)cc2)cc1
The melting point of the first is lower: 139 to 142 °C for the first, 187 to 188 °C for the second.

First: C=CCNC(=O)C1=C(C(=O)Nc2ccc(Br)cc2F)CCCC1
Second: CC(=O)Nc1cc(F)c([N+](=O)[O-])cc1F
The melting point of the first is lower: 167 to 169 °C for the first, 188 to 189 °C for the second.

Compared with `NC(=O)c1cc(Oc2ccc3c(C(=O)Nc4cccc(C(F)(F)F)c4)cccc3c2)ccn1`, `CN(C)c1cccc(NC(=S)NN=Cc2ccc(-c3ncn(-c4ccc(OC(F)(F)F)cc4)n3)cc2)c1` is higher in melting point: 117 to 120 °C for the first, 192 to 194 °C for the second.

First: CCOC(=O)C(=CNc1ccc(F)c(Cl)c1)C(=O)OCC
Second: COC(=O)c1ccc(F)cc1OC(=S)N(C)C
The melting point of the first is lower: 71.5 to 72.5 °C for the first, 107 °C for the second.

First: CCOc1cc(N)c(Cl)cc1C(=O)NCC1CN(CC2CCN(Cc3cccc(F)c3)CC2)CCO1 (stereo not given)
Second: Cc1cc(C)cc(C(=O)N2CCN(C(=O)CCNC3CCN(Cc4ccccc4)CC3)C(c3ccc(Cl)c(Cl)c3)C2)c1 (stereo not given)
The melting point of the first is higher: 172 to 174 °C for the first, 51 to 54 °C for the second.

Compared with `CCCn1c(=O)c2[nH]c(-c3ccc(C(=O)N(CC)CC)o3)nc2n(CCC)c1=O`, `CCOC(=O)c1c(CCCN(CC)CC)nc2cc(OC)c(OC)cc2c1-c1ccc(OC)c(OC)c1` is lower in melting point: 247 to 250 °C for the first, 96 to 98 °C for the second.

First: CC/C=C(\C)CNc1cccc(-c2ccnc3c(C(=O)c4cccs4)cnn23)c1
Second: CCOC(=O)c1cnn(C)c1C(=O)Nc1ccc2nc(-c3cccnc3)nn2c1
The melting point of the first is lower: 132 to 133 °C for the first, 217 °C for the second.

Compared with `CCOC(=O)C(C)(C)Oc1ccc(CNc2ccccn2)cc1`, `O=Cc1ccc(OCc2csc(-c3ccccc3)n2)cc1` is higher in melting point: 78 to 79 °C for the first, 86 to 90 °C for the second.

First: O=C1N[C@@H](Cc2ccccc2)[C@@H](COS(=O)(=O)c2ccc([N+](=O)[O-])cc2)O1
Second: O=Cc1ccccc1NC1CCN(Cc2ccccc2)CC1
The melting point of the first is higher: 148 to 150 °C for the first, 87 to 90 °C for the second.

Compared with `N=C(O)c1cc(C(O)=NCCO)c(C(=O)O)cc1C(=O)O`, `O=C(Nc1cccc(Cl)c1C(=O)O)c1ccccc1` is lower in melting point: 279 to 280 °C for the first, 208 to 210 °C for the second.

`N#Cc1cccc(OC2SCC(O)C(O)C2O)c1` (stereo not given) and `COc1cccc(Oc2ccccc2C(=O)O)c1` cannot be ordered by melting point: 130 to 135 °C for the first, 129 to 131 °C for the second.

First: CCCc1c(O)ccc2oc(Cc3ccc(F)cc3)c(C)c12
Second: O=Cc1c(-c2ccc(F)cc2)n(CCF)c(=O)c2ccccc12
The melting point of the first is lower: 121 to 123 °C for the first, 132 to 134 °C for the second.

First: CCn1c([N+](=O)[O-])cnc1C=Cc1ccccc1
Second: CC(=O)Oc1c(Cc2ccccc2)cc(C(C)=O)c2ccccc12
The melting point of the first is higher: 231 to 233 °C for the first, 118 to 120 °C for the second.

First: CC(C)n1nc(CC(=O)c2cccc(F)c2)ccc1=O
Second: COC(=O)C#CC(=O)c1ccc(F)cc1
The melting point of the first is higher: 80 to 81 °C for the first, 62 to 63 °C for the second.

Compared with `CCc1cc(N)c(N)cc1CC`, `CCOCc1cc2cccc(OC)c2oc1=O` is higher in melting point: 114 to 116 °C for the first, 131 to 133 °C for the second.

First: O=C1C=Cc2cc3c(cc2=C1)C=C(S(=O)(=O)NCCN1CCOCC1)C(=O)C=3S(=O)(=O)NCCN1CCOCC1
Second: CN1CCN(CCCNc2ncc3cc(-c4c(Cl)cccc4Cl)c(=O)n(C)c3n2)CC1
The melting point of the first is higher: 230 to 233 °C for the first, 170 to 172 °C for the second.

First: CC1=C(C(=O)O)C(c2ccccc2Cl)C(c2nnco2)=C(C)N1 (stereo not given)
Second: CSc1ccn2nc(S(=O)(=O)Nc3c(Cl)cccc3Cl)nc2n1
The melting point of the first is lower: 187 to 190 °C for the first, 239 to 243 °C for the second.

First: COc1ccc2c(c1)C(=O)c1c-2c(N2CCN(C(=O)CCCl)CC2)nc2ccccc12
Second: O=C(Nc1cccc2c1C(=O)N(CC(=O)N1CCN(c3ccncc3)CC1)C2=O)c1ccc(Cl)s1
The melting point of the first is lower: 162 to 163 °C for the first, 207 °C for the second.

Compared with `CC#CC(C)(C)NC(=O)C(CC)Oc1ccc2ncc(Br)cc2c1` (stereo not given), `CC(C)(C)c1cc(OCc2ccc(-c3nnn[nH]3)cc2)cc(C(C)(C)C)c1O` is higher in melting point: 109 to 112 °C for the first, 235 to 237 °C for the second.

First: NC(=O)c1cccc(CCCBr)c1
Second: NC(=O)c1ccc(-c2ccc(Cl)cc2)nc1
The melting point of the first is lower: 109 °C for the first, 245 to 258 °C for the second.

First: CCOC(=O)CCc1ccc2c(c1)c(-c1cc3cccnc3n1S(=O)(=O)c1ccc(C)cc1)cn2C
Second: Cn1cc(-c2cc(-c3cnc4[nH]ncc4c3)ccn2)n(-c2ccc(C(C)(C)C#N)cc2)c1=O
The melting point of the first is lower: 280 to 282 °C for the first, 294 °C for the second.

First: Cc1cc(C)c(N)nn1
Second: CCOC(=O)c1cc(F)c(N2CCCC2)nc1Cl
The melting point of the first is higher: 123 to 126 °C for the first, 95 °C for the second.

Compared with `Nc1sc2c(c1C(=O)c1ccc(Cl)cc1)CCC(O)C2` (stereo not given), `COC(=O)c1ccc(Cn2nc(Br)c3ccc(C(=O)NCC4CCCC4)cc32)c(OC)c1` is lower in melting point: 176 to 177 °C for the first, 161 to 162 °C for the second.

First: C=C1CC(COc2ccc3c(C)c(Cl)c(=O)oc3c2)(c2ccccc2)OC1=O (stereo not given)
Second: COc1ccc(-c2cccc(COCCc3cccc(NS(=O)(=O)C(F)(F)F)c3)c2)cc1
The melting point of the first is higher: 149 to 150 °C for the first, 88 to 90 °C for the second.

Compared with `O=C(O)CCc1cnoc1-c1ccc(C(F)(F)F)cc1`, `Cc1cc(Oc2c(Cl)cc(C(F)(F)F)cc2Cl)nn1C(=S)NCC1CCCO1` (stereo not given) is lower in melting point: 171 to 172 °C for the first, 69 to 71 °C for the second.

Compared with `CCCOc1c(OC)cc([C@H]2CC[C@H](c3cc(OC)c(OC)c(OC)c3)O2)cc1S(C)(=O)=O` (relative stereo), `COc1cc(OC)c2c(=O)[nH]c(-c3ccc(OCC(=O)O)c(OC)c3)nc2c1` is higher in melting point: 95 to 96 °C for the first, 275 to 277 °C for the second.

First: O=C(Nc1cnc2ccccc2c1)OC1CN2CCC1CC2 (stereo not given)
Second: CC(Oc1cc(-n2nc3n(c2=O)CCCC3)c(Cl)cc1Cl)C(=O)O (stereo not given)
The melting point of the first is lower: 135 to 137 °C for the first, 183 to 185 °C for the second.

First: COCc1ccc(C(=O)O[C@H](CC(C)C)C(=O)O)o1
Second: CCOC(=O)c1cn2c3c(cc(F)cc3c1=O)C(=O)CC2C (stereo not given)
The melting point of the first is lower: 73 to 74 °C for the first, 262 to 265 °C for the second.

Compared with `CC(C)OC(=O)c1cc(-n2c(=O)[nH]c3c(c2=O)CCC3)c(Br)cc1Br`, `CC(C)(C)c1cc2c(c(C(C)(C)C)c1O)CCO2` is lower in melting point: 223 to 226 °C for the first, 113 °C for the second.

First: COc1cc(Nc2c(C#N)cnc3cc(/C=C/CCCCCCCCCN4CCOCC4)c(OC)cc23)c(Cl)cc1Cl
Second: O=C(O)CCCOc1ccccc1OCCC(c1ccccc1)(c1ccccc1)c1ccccc1
The melting point of the first is lower: 98 to 99 °C for the first, 107 to 108 °C for the second.
